pEC50: −log10 of the molar value.
Biological target: T1, human TLR8 (Homo sapiens, UniProt Q9NR97)
T1 construct: host or cells: HEK293 (HEK-Blue hTLR8)
T1 sequence (Q9NR97 27-1041): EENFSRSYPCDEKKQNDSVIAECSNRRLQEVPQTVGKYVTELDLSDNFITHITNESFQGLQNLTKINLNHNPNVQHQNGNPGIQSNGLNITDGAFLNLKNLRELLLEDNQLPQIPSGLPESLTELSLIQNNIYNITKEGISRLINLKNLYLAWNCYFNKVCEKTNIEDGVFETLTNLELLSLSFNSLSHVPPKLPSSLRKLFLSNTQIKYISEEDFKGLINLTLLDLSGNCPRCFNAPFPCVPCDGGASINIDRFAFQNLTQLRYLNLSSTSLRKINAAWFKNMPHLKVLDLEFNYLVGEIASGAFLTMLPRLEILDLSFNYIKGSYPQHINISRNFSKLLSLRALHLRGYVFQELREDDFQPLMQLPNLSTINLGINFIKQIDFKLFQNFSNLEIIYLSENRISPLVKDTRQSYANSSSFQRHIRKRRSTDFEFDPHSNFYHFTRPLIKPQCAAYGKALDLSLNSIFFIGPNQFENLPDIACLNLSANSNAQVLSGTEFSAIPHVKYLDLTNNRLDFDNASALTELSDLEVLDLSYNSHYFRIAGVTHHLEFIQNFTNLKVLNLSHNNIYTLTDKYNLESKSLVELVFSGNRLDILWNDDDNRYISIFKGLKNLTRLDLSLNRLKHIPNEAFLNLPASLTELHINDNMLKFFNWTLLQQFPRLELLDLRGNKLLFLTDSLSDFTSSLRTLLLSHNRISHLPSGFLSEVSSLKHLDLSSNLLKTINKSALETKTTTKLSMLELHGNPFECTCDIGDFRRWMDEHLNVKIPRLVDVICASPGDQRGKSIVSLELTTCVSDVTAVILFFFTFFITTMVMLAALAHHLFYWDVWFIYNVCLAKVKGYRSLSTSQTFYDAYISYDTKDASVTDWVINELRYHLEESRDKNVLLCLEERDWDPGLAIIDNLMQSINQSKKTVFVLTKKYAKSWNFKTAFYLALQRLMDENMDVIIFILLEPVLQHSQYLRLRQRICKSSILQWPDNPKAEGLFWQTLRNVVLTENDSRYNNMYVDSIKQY
Test: HEK-Blue hTLR8 reporter cell assay (SEAP, NF-kB/AP-1) for stimulation of human TLR8
Format: cell-based
Settings: HEK-Blue hTLR8 cells, 24 h incubation, SEAP readout; read-out: TLR8_EC50
Procedure, shortened: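 Stimulation is quantified as secreted alkaline phosphatase in supernatant using QUANTI-Blue™ substrate. Reporter HEK293 line co-transfected with hTLR8 and SEAP under an IFN-β minimal promoter with five NF-κB/AP-1 sites; 3.10E4 cells/well, 18 to 24 h pre-culture at 37° C. before compounds.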

Row | Compound | pEC50
1 | CCCCc1nc2c(N)nnc(NCCOC)c2n1Cc1ccc(OC)cc1 [Compound 49, 2-butyl-1-(4-methoxybenzyl)-N7-(2-methoxyethyl)-1H-imidazo[4,5-d]pyridazine-4,7-diamine] | < 4.70
2 | CCCCc1nc2c(N)nnc(-c3cc[nH]c3)c2n1Cc1ccc(OC)cc1 [Compound 14, 2-butyl-1-(4-methoxybenzyl)-7-(1H-pyrrol-3-yl)-1H-imidazo[4,5-d]pyridazin-4-amine] | < 4.70
3 | CCCCc1nc2c(N)nnc(OCC)c2n1Cc1ccc(OC)cc1 [Compound 48, 2-butyl-7-ethoxy-1-(4-methoxybenzyl)-1H-imidazo[4,5-d]pyridazin-4-amine] | < 4.70
4 | CCCCc1nc2c(N)nnc(N3CCC(c4ccccc4)C3)c2n1C (stereo not shown) [Compound 89, 2-butyl-1-methyl-7-(3-phenylpyrrolidin-1-yl)-1H-imidazo[4,5-d]pyridazin-4-amine] | 5.12
5 | CCCCc1nc2c(N)nnc(OC(C)C)c2n1C[C@H]1CCC[C@@H](N)C1 (racemic) [Compound 23, 1-(((1S,3R)-3-aminocyclohexyl)methyl)-2-butyl-7-isopropoxy-1H-imidazo[4,5-d]pyridazin-4-amine (and enantiomer)] | 4.83
6 | CCCCc1nc2c(N)nnc(OC(C)C)c2n1Cc1ccc(CN)cc1 [Compound 21, 1-(4-(aminomethyl)benzyl)-2-butyl-7-isopropoxy-1H-imidazo[4,5-d]pyridazin-4-amine] | 5.86
7 | CCCCc1nc2c(N)nnc(N(C)C)c2n1C [Compound 41, 2-butyl-N7,N7,1-trimethyl-1H-imidazo[4,5-d]pyridazine-4,7-diamine] | 5.14
8 | CCCCc1nc2c(N)nnc(SC(C)C)c2n1Cc1ccc(OC)cc1 [Compound 3, 2-butyl-7-(isopropylthio)-1-(4-methoxybenzyl)-1H-imidazo[4,5-d]pyridazin-4-amine] | < 4.70
9 | CCCCc1nc2c(N)nnc(OC(C)C)c2n1Cc1ccc(CN)cc1 [Compound 22, 1-(4-(aminomethyl)benzyl)-2-butyl-7-isopropoxy-1H-imidazo[4,5-d]pyridazin-4-amine 2,2,2-trifluoroacetate] | 5.58
10 | CCCCc1nc2c(N)nnc(N(C)C)c2n1Cc1ccc(OC)cc1 [Compound 71, 2-butyl-1-(4-methoxybenzyl)-N7,N7-dimethyl-1H-imidazo[4,5-d]pyridazine-4,7-diamine] | < 4.70
11 | C=CCOc1nnc(N)c2nc(CCCC)n(Cc3ccc(OC)cc3)c12 [Compound 6, 7-(allyloxy)-2-butyl-1-(4-methoxybenzyl)-1H-imidazo[4,5-d]pyridazin-4-amine] | < 4.70
12 | CCCCc1nc2c(N)nnc(N3CCCC3)c2n1Cc1ccc(OC)cc1 [Compound 10, 2-butyl-1-(4-methoxybenzyl)-7-(pyrrolidin-1-yl)-1H-imidazo[4,5-d]pyridazin-4-amine] | < 4.70
13 | CCCCc1nc2c(N)nnc(OC(C)C)c2n1Cc1cccc(CN)c1 [Compound 33, 1-(3-(aminomethyl)benzyl)-2-butyl-7-isopropoxy-1H-imidazo[4,5-d]pyridazin-4-amine 2,2,2-trifluoroacetate] | 6.47
14 | CCCCc1nc2c(N)nnc(OC(C)C)c2n1Cc1ccccn1 [Compound 75, 2-butyl-7-isopropoxy-1-(pyridin-2-ylmethyl)-1H-imidazo[4,5-d]pyridazin-4-amine] | < 4.70
15 | CCCCc1nc2c(N)nnc(C(C)C)c2n1Cc1ccc(OC)cc1 [Compound 18, 2-butyl-7-isopropyl-1-(4-methoxybenzyl)-1H-imidazo[4,5-d]pyridazin-4-amine] | < 4.70
16 | CCCCc1nc2c(N)nnc(OC(C)C)c2n1Cc1ccc(C=O)cc1 [Compound 34, 4-((4-amino-2-butyl-7-isopropoxy-1H-imidazo[4,5-d]pyridazin-1-yl)methyl)benzaldehyde] | < 4.70
17 | C=C(C)c1nnc(N)c2nc(CCCC)n(Cc3ccc(OC)cc3)c12 [Compound 17, 2-butyl-1-(4-methoxybenzyl)-7-(prop-1-en-2-yl)-1H-imidazo[4,5-d]pyridazin-4-amine] | < 4.70
18 | CCCCc1nc2c(N)nnc(OCCOC)c2n1Cc1ccc(OC)cc1 [Compound 4, 2-butyl-1-(4-methoxybenzyl)-7-(2-methoxyethoxy)-1H-imidazo[4,5-d]pyridazin-4-amine] | < 4.70
19 | CCCCc1nc2c(N)nnc(OC(C)C)c2n1Cc1ccc(OC)cc1 [Compound 1, 2-butyl-7-isopropoxy-1-(4-methoxybenzyl)-1H-imidazo[4,5-d]pyridazin-4-amine] | < 4.70
20 | CCCCc1nc2c(N)nnc(NC(C)C)c2n1Cc1ccc(OC)cc1 [Compound 2, 2-butyl-N7-isopropyl-1-(4-methoxybenzyl)-1H-imidazo[4,5-d]pyridazin-4,7-diamine] | < 4.70
21 | CCCCc1nc2c(N)nnc(OC(C)C)c2n1Cc1ccc(CO)cc1 [Compound 35, (4-((4-amino-2-butyl-7-isopropoxy-1H-imidazo[4,5-d]pyridazin-1-yl)methyl)phenyl)methanol] | < 4.70
22 | CCCCc1nc2c(N)nnc(OC3CCCC3)c2n1Cc1ccc(OC)cc1 [Compound 9, 2-butyl-7-(cyclopentyloxy)-1-(4-methoxybenzyl)-1H-imidazo[4,5-d]pyridazin-4-amine] | < 4.70
